Results published in patent US7999128B2, “Hydroxybenzophenone derivatives” (BASF SE, priority 2006, dated 2011).

Tests used:
[1] = UV absorption (λmax, E 1/1); format: physicochemical; conditions: for E 1/1: at λmax
[2] = Solubility in Cyclomethicone; format: physicochemical; conditions: at RT

With `CCN(CC)c1ccc(C(=O)c2ccccc2C(=O)OCCOC(=O)C(C)C[Si](C)(O[Si](C)(C)C)O[Si](C)(C)C)c(O)c1` (centres unmarked) [Example A3] the λmax [1] was 357 nm and the “E 1/1” value [1] was 606.

For `CCN(CC)c1ccc(C(=O)c2ccccc2C(=O)OCCC[Si](C)(C)C)c(O)c1` [Example A1], the λmax [1] was 350 nm, the “E 1/1” value [1] was 822 and the “solubility in Cyclomethicone” value [2] was 1.8%.

For `CCN(CC)c1ccc(C(=O)c2ccccc2C(=O)OCCOC(=O)C(C)C[Si](C)(O[Si](C)(C)C)O[Si](C)(C)C)c(O)c1` (centres unmarked) [Example A2], the λmax [1] was 350 nm, the “E 1/1” value [1] was 571 and the “solubility in Cyclomethicone” value [2] was over 20%.
